We go through 11 molecules from ChEMBL document CHEMBL3758176, “Synthesis of dihydrosterculic acid-based monoglucosyl diacylglycerol and its analogues and their biological evaluation” (Eur J Med Chem, 2016).

The test system of assay [1] is MCF7. Briefly: Cytotoxicity against human MCF7 cells assessed as reduction in cell viability by MTT assay. The class given is functional, cell-based. (Tetrazolium assays rely on reduction of a dye to a coloured formazan, in cell work by metabolically active cells.)
Assay [2] in a line: Cytotoxicity against human DU145 cells assessed as reduction in cell viability by MTT assay. The class given is functional, cell-based, DU-145.
The next assay deals with HUVEC. Briefly: Cytotoxicity against HUVEC assessed as reduction in cell viability by MTT assay. The class given is cell-based, Homo sapiens.
The next assay relates to A549. Briefly: Cytotoxicity against human A549 cells assessed as reduction in cell viability by MTT assay. The class given is functional, cell-based.
A short description of assay [3]: Cytotoxicity against human SKOV3 cells assessed as reduction in cell viability by MTT assay. The class given is functional, cell-based, SK-OV-3.
The test system of assay [4] is MCF7. Briefly: Induction of apoptosis in human MCF7 cells assessed as caspase-9 activation using AFC-conjugated Ac-LEHD as substrate at 5 to 10 uM incubated for 24 to 48 hrs by fluorescence assay relative to untreated control. The class given is functional.
The subject of assay [5] is MCF7. The assay can be described thus: Induction of apoptosis in human MCF7 cells assessed as caspase-3 activation using AFC-conjugated Ac-DEVD as substrate at 5 to 10 uM incubated for 24 to 48 hrs by fluorescence assay relative to untreated control. The class given is functional.
The test system of assay [6] is MCF7. The assay can be described thus: Antiproliferative activity against human MCF7 cells assessed as decrease in cell proliferation at 5 to 10 uM after 24 hrs by bromodeoxyuridine cell proliferation assay relative to untreated control. Type of assay: functional, cell-based.
[7] abbreviates: Homo sapiens, MCF7, read-out: IC50.
Setting [8] is: Homo sapiens, DU-145, read-out: IC50.
Setting [9] is: Homo sapiens, HUVEC, read-out: IC50.
Setting [10] is: Homo sapiens, A549, read-out: IC50.
[11] abbreviates: Homo sapiens, SK-OV-3, read-out: IC50.

Calls of active or inactive are those of the source. No cut-off for these calls is given here.

Consider `CCCCCCCCC1CC1CCCCCCCC(=O)OC[C@H](CO[C@@H]1O[C@H](COC(C)=O)[C@@H](OC(C)=O)[C@H](OC(C)=O)[C@H]1OC(C)=O)OC(=O)CCCCCCCC1CC1CCCCCCCC` (stereo partly specified), for which the IC50 entry (with MCF7 [1] (mcf7); in assay [2] (du-145); in the assay with HUVEC (huvec); in the assay on A549 (a549); in assay [3] (sk-ov-3)) was “Not Active” throughout.
`CCCCCCCCCCCC(=O)OC[C@H](CO[C@@H]1O[C@H](COC(C)=O)[C@@H](OC(C)=O)[C@H](OC(C)=O)[C@H]1OC(C)=O)OC(=O)CCCCCCCCCCC`: the IC50 entry (with MCF7 [1] (mcf7); in assay [2] (du-145); in the assay with HUVEC (huvec); in the assay on A549 (a549); in assay [3] (sk-ov-3)) was “Not Active” each time.
Take `CCCCCCCC/C=C\CCCCCCCC(=O)O[C@H](COC(=O)CCCCCCCC1CC1CCCCCCCC)CO[C@@H]1O[C@H](CO)[C@@H](O)[C@H](O)[C@H]1O` (stereo partly specified): the IC50 (commonly the concentration at which inhibition is half-maximal) is 38.2 µM in the assay on MCF7 [1] (setting [7]); 38.9 µM in assay [2] (setting [8]); 99.8 µM in the assay on HUVEC (setting [9]); 41.6 µM in the assay on A549 (setting [10]); 35.6 µM in assay [3] (setting [11]).
`CCCCCCCC/C=C\CCCCCCCC(=O)O[C@H](COC(=O)CCCCCCCC1CC1CCCCCCCC)CO[C@@H]1O[C@H](COC(C)=O)[C@@H](OC(C)=O)[C@H](OC(C)=O)[C@H]1OC(C)=O` (stereo partly specified): the half-maximal inhibitory concentration (IC50) in the assay with MCF7 [1] (setting [7]) was 94.2 µM; in assay [2] (setting [8]), 186 µM; in the assay with HUVEC (setting [9]), 122 µM; with A549 (a549), “Not Active”; in assay [3] (sk-ov-3), “Not Active”.
For `CCCCCCCCC1CC1CCCCCCCC(=O)OC[C@H](CO[C@@H]1O[C@H](CO)[C@@H](O)[C@H](O)[C@H]1O)OC(=O)CCCCCCCC1CC1CCCCCCCC` (stereo partly specified), the half-maximal inhibitory concentration (IC50) in the assay on MCF7 [1] (setting [7]) is 99.8 µM; in assay [2] (setting [8]), 210 µM; with HUVEC (setting [9]) it was 120 µM; in the assay with A549 (setting [10]), 124 µM; in assay [3] (setting [11]), 112 µM.
On to `COc1cccc2c1C(=O)c1c(O)c3c(c(O)c1C2=O)C[C@@](O)(C(=O)CO)C[C@@H]3O[C@H]1C[C@H](N)[C@H](O)[C@H](C)O1` [DOXORUBICIN], for which the results for the IC50 (in assay [2] (setting [8]); in the assay with HUVEC (setting [9]); in assay [3] (setting [11])) were 0.7 µM, 79.6 µM and 0.7 µM, respectively.
Regarding `C=CCCCCCCCCC(=O)OC[C@H](CO[C@@H]1O[C@H](COC(C)=O)[C@@H](OC(C)=O)[C@H](OC(C)=O)[C@H]1OC(C)=O)OC(=O)CCCCCCCCC=C`, the IC50 with MCF7 [1] (setting [7]) is 25.6 µM; in assay [2] (setting [8]), 33 µM; with HUVEC (setting [9]), 119 µM; in the assay on A549 (setting [10]) it was 30.2 µM; in assay [3] (setting [11]), 29.4 µM.
For `CCCCCCCC/C=C\CCCCCCCC(=O)OC[C@H](CO[C@@H]1O[C@H](COC(C)=O)[C@@H](OC(C)=O)[C@H](OC(C)=O)[C@H]1OC(C)=O)OC(=O)CCCCCCC/C=C\CCCCCCCC`, the IC50 entry (with MCF7 [1] (mcf7); in assay [2] (du-145); in the assay with HUVEC (huvec); in the assay on A549 (a549); in assay [3] (sk-ov-3)) was “Not Active” throughout.
With `CCCCCCCC/C=C\CCCCCCCC(=O)OC[C@H](CO[C@@H]1O[C@H](CO)[C@@H](O)[C@H](O)[C@H]1O)OC(=O)CCCCCCC/C=C\CCCCCCCC`, the 50% inhibitory concentration (IC50) turned out to be 17.6 µM in the assay on MCF7 [1] (setting [7]); 20.1 µM in assay [2] (setting [8]); 110 µM in the assay with HUVEC (setting [9]); 18.2 µM in the assay with A549 (setting [10]); 19.1 µM in assay [3] (setting [11]). Also, the “fold change (FC)” value in the assay on MCF7 [4] and in the assay on MCF7 [5] was 2 each time. Besides, in the assay on MCF7 [6], the result was Active.
Turning to `C=CCCCCCCCCC(=O)OC[C@H](CO[C@@H]1O[C@H](CO)[C@@H](O)[C@H](O)[C@H]1O)OC(=O)CCCCCCCCC=C`, the IC50 is 32.5 µM in the assay with MCF7 [1] (setting [7]); 119 µM in assay [2] (setting [8]); 126 µM in the assay with HUVEC (setting [9]); 106 µM in the assay with A549 (setting [10]); 89.6 µM in assay [3] (setting [11]).
In the case of `CCCCCCCCCCCC(=O)OC[C@H](CO[C@@H]1O[C@H](CO)[C@@H](O)[C@H](O)[C@H]1O)OC(=O)CCCCCCCCCCC`, the IC50 in the assay on MCF7 [1] (setting [7]) is 32.6 µM; in assay [2] (setting [8]), 54.9 µM; in the assay with HUVEC (setting [9]), 96.1 µM; with A549 (setting [10]), 35.6 µM; in assay [3] (setting [11]), 44.4 µM.
